Results taken from ChEMBL document CHEMBL1135322, “Glutathione-like tripeptides as inhibitors of glutathionylspermidine synthetase. Part 1: Substitution of the glycine carboxylic acid group” (Bioorg Med Chem Lett, 2002).
Where “and” joins values, the source holds several entries; their conditions need not be identical. Identical values can stand only once. Where a SMILES comes first, the peptide text is derived from it.

B1: Glutathionylspermidine synthase (Crithidia fasciculata), P90518 (protein)
chain: MSSLPHNHHYETHHRGTAEVPFDELIGVTPDGVPVISNGNEAHFSNLESITAACLPLSSFERKAPCKQPYRKMGVKWQCVEFVRRYLASRKAVWMTSLCTAEEVWREENLFVDVRDGRPVEVVRTPNKSTGPAPAVADIVVWGEGPETPFGHVAIVTEVCASCVRVAEQNQGFEKWPEDVPFSREIAMRTTESGEVELLDEDPLLGWVTVQAPFYNFDDGDLADSFRLVVGQGQILRQPFPKHVDVPWLNTGEECDTILKHSLVVDGNMGEGAHAEEGDVPGAFYFLDYDMFCRLGRAASSLHRIAMAATAKVLEDPESTHLLEHYFGVPPEIQPLLRRSWEMTPPMGGRFDFGYDGKNVVMLEYNCDSSGALLECCNTQEKMARFYGVSQGTSTGSFLGAKCVTYFQRLLTNEKVCPQHRLIHFMIDEDDEERYTARCMMGFAEQAGFRTKLCVKLVNFRYRDGPPSNAAPLATPCDHPTIVDGEDEEVLMVWKTWSWDTVLHQYHSQRSSSDAVNTPTLSDILLNNNIRVLEPLWKAVTGSKAILPFMHALAPDHEHMLAASFLPTREIISRHYISKPVNGRAGQNIMMYDPVTSPTELEGAPQQDICEALSQNASARSLLNGSPLPLSQSVDQTNECSPGKFFDSVLVYQQRLFLKKFDGKYFPIFCGWMVGDEFGGVVVREDTSKITKLSSMVVPARVVRDNVPLGVSYSDEGET

Assays:
[1] = target: T1, Glutathionylspermidine synthase (Crithidia fasciculata, UniProt P90518); assay: Concentration required for the inhibition of enzyme Glutathionylspermidine Synthetase wild-type enzyme
T1 sequence (P90518 whole entry): B1 chain

[2] = target: T2, Glutathionylspermidine synthase (Crithidia fasciculata) (UniProt P90518); assay: Compound was tested for percent inhibition towards the enzyme Glutathionylspermidine Synthetase wild-type enzyme and compared with 0.5 mM GSH
T2 sequence (whole entry): B1 chain

[3] = target: T1, Glutathionylspermidine synthase; assay: Inhibition constant was evaluated against enzyme Glutathionylspermidine Synthetase wild-type enzyme
[4] = target: T2, Glutathionylspermidine synthase (Crithidia fasciculata); assay: Compound was tested for substrate activity towards the enzyme Glutathionylspermidine Synthetase wild-type enzyme and compared with 0.5 mM GSH
[5] = target: T2, Glutathionylspermidine synthase (Crithidia fasciculata); assay: (§1) Inhibitory activity against amidase free Glutathionylspermidine Synthetase mutant (C79A); settings: concentration not given here
[6] = target: T2, Glutathionylspermidine synthase (Crithidia fasciculata); assay: (§2) Substrate activity against amidase free Glutathionylspermidine Synthetase mutant (C79A)
[7] = target: T3, Glutathionylspermidine synthase (Crithidia fasciculata, UniProt P90518, C79A); assay: as §1
T3 sequence (P90518 whole entry C79A): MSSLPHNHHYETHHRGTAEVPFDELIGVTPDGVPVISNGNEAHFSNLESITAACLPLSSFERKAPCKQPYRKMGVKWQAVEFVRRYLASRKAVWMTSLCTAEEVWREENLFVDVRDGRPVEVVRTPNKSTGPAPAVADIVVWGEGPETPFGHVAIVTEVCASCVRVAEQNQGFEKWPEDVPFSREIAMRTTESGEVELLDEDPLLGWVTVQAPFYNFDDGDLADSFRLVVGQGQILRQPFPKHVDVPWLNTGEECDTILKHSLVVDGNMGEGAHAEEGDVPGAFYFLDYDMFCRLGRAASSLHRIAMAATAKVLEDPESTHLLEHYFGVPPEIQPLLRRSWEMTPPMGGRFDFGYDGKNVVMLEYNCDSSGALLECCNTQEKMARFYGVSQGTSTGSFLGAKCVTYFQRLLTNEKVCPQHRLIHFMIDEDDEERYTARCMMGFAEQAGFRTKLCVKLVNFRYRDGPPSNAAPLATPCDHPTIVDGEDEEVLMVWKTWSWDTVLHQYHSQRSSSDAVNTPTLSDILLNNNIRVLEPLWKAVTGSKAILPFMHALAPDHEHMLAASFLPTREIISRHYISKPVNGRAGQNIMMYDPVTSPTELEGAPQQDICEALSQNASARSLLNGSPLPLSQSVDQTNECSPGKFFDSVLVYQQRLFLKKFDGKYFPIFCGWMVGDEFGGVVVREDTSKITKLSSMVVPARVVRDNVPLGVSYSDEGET

[8] = target: T3, Glutathionylspermidine synthase; assay: Inhibitory constant against amidase free Glutathionylspermidine Synthetase mutant (C79A)
[9] = target: T3, Glutathionylspermidine synthase; assay: Inhibitory constant against amidase free Glutathionylspermidine Synthetase mutant (C79A); NA denotes not applicable
[10] = Half-life was determined; assay type: ADME; settings: human
[11] = target: T1, Glutathionylspermidine synthase; assay: Concentration required for the inhibition of enzyme Glutathionylspermidine Synthetase wild-type enzyme; NA denotes not applicable
[12] = target: T3, Glutathionylspermidine synthase; assay: Inhibitory activity against amidase free Glutathionylspermidine Synthetase mutant (C79A); NA denotes not applicable
[13] = target: T1, Glutathionylspermidine synthase; assay: Inhibition constant was evaluated against enzyme Glutathionylspermidine Synthetase wild-type enzyme; NA denotes not applicable
[14] = target: T1, Glutathionylspermidine synthase; assay: Inhibition constant was evaluated against enzyme Glutathionylspermidine Synthetase; NA denotes not applicable
[15] = substrate: CC(C)C[C@H](NC(=O)CC[C@H](N)C(=O)O)C(=O)NCc1nn[nH]n1; assay: Michaelis-Menten constant at the concentration of < 0.4 mM; settings: Crithidia fasciculata
[16] = substrate: CC(C)C[C@H](NC(=O)CC[C@H](N)C(=O)O)C(=O)NCC(N)=O; assay: as §2; settings: Crithidia fasciculata
[17] = substrate: CC(C)C[C@H](NC(=O)CC[C@H](N)C(=O)O)C(=O)NCC(=O)O; assay: Compound was tested for substrate activity (Apparent Km) towards the enzyme Glutathionylspermidine Synthetase wild-type enzyme and compared with 0.5 mM GSH; settings: Crithidia fasciculata

| Molecule | IC50 [1] [µM] | inhibition [2] [%] | Activity [4] [%] | inhibition [5] [%] | Activity [6] [%] | also measured |
| --- | --- | --- | --- | --- | --- | --- |
| CC(C)C[C@H](NC(=O)CC[C@H](N)C(=O)O)C(=O)NCP(=O)(O)O | 60 | 86 | 0 | – | – | Ki [3]: 60 µM |
| CC(C)C[C@H](NC(=O)CC[C@H](N)C(=O)O)C(=O)NCc1nnn[nH]1 | 138 | – | – | – | – | – |
| Cc1ccc(S(=O)(=O)NC(=O)CNC(=O)[C@H](CC(C)C)NC(=O)CC[C@H](N)C(=O)O)cc1 | 2 | 2 | 2 | – | – | – |
| CC(C)C[C@H](NC(=O)CC[C@H](N)C(=O)O)C(=O)NCB(O)O | 17.2 | 95 | 1 | – | – | Ki [3]: 81 µM and 18 µM |
| CC(C)C[C@H](NC(=O)CC[C@H](N)C(=O)O)C(=O)NCc1nn[nH]n1 | – | 58 | 0 | – | – | – |
| CCCCOC(=O)CNC(=O)[C@H](CC(C)C)NC(=O)CC[C@H](N)C(=O)O | – | 0 | 102 | 26 | 3 | – |
| CC(C)C[C@H](NC(=O)CC[C@H](N)C(=O)O)C(=O)NCC(=O)NO (HELM PEPTIDE1{[gGlu].L.G.[ON[*:1]]}$$$$V2.0) | – | 76 | 44 | 98 | 1 | IC50 [7]: 3.2 µM; Ki [8]: 2.5 µM; Ki [9]: Not Active |
| CC(C)C[C@H](NC(=O)CC[C@H](N)C(=O)O)C(=O)NCC(N)=O (HELM PEPTIDE1{[gGlu].L.G.[am]}$$$$V2.0) | – | 0 | 93 | 89 | 22 | IC50 [7]: 105 µM; Ki [9]: Not Active |
| CC(C)C[C@H](NC(=O)CC[C@H](N)C(=O)O)C(=O)NCC(=O)O (HELM PEPTIDE1{[gGlu].L.G}$$$$V2.0) | – | 0 | 104 | 0 | 125 | half-life [10]: 1 h; IC50 [11]: Not Active; IC50 [12]: Not Active; Ki [13]: Not Active; Ki [14]: Not Active |
| B1 | – | – | – | – | – | Km [15]: 34 µM; Km [16]: 245 µM; Vmax [16]: 15%; Km [17]: 34 µM |
